Test results from patent US8323624B2, “S-triazine sunscreens bearing hindered para-aminobenzalmalonate/para-aminobenzalmalonamide and aminobenzoate/aminobenzamide substituents” (L'Oreal, priority 2004, dated 2012).

Test: Photostability of oily-solution films under solar simulator irradiation, quantified by HPLC
Assay type: physicochemical
Conditions: 2% by weight in the oil Miglyol 812, film on ground glass; irradiated one hour with Oriel solar simulator (UV-A=14.2 mW/cm^2; UV-B=0.41 mW/cm^2); HPLC vs non-irradiated controls; means over 3 samples
Protocol: The two products were dissolved at 2% by weight in the oil Miglyol 812. Approximately 10 mg of oily solution are spread over 10 cm^2 at the surface of a hollow disc made of ground glass; the amount is determined by weighing.
The films of the oily solutions are irradiated for one hour using an Oriel solar simulator (UV-A=14.2 mW/cm^2; UV-B=0.41 mW/cm^2) and then extracted with 10 ml of ethanol comprising 10% of isopropanol subjected to ultrasound for 5 min. The products are quantified by analyzing the extracts by HPLC.
HPLC conditions: column: UP5WOD-25QS, 250×4.6 mm, 5 μm, Interchrom; eluent: methanol (Comparative Example 1) and 98% methanol+2% water (Example 1); flow rate: 1 ml/min; volume injected: 10 μl; detection: diode array detector; rt (min): 5.2 (compound of the prior art) and 7.4 (compound of Example 1).
The levels of loss are determined by comparison of the amounts of product present in the irradiated samples and in the non-irradiated controls prepared simultaneously and treated in the same way (means over 3 samples; A=area/mg of solution): % loss=100×(A0−Airr)/A0

SMILES: CCCCOC(=O)c1ccc(Nc2nc(Nc3ccc(C=C(C(=O)OCC(C)(C)C)C(=O)OCC(C)(C)C)cc3)nc(Nc3ccc(C=C(C(=O)OCC(C)(C)C)C(=O)OCC(C)(C)C)cc3)n2)cc1 [Compound of formula (1), 2,4-bis(dineopentyl 4′-aminobenzalmalonate)-6-(butyl 4″-aminobenzoate)-s-triazine]
- % of disappearance (mean loss): 4.6%

SMILES: CC(C)COC(=O)C(=Cc1ccc(Nc2nc(Nc3ccc(C=C(C(=O)OCC(C)C)C(=O)OCC(C)C)cc3)nc(Nc3ccc(C=C(C(=O)OCC(C)C)C(=O)OCC(C)C)cc3)n2)cc1)C(=O)OCC(C)C [Compound (prior art), 2,4,6-Tris(diisobutyl 4′-aminobenzalmalonate)-s-triazine]
- % of disappearance (mean loss): 10.0%
